Data on 30 molecules can be found in patent US10981862B2, “Physiological cooling compounds” (Symrise, Inc., priority 2015, dated 2021).

Series [1] deals with sensory panel. As to the kind of experiment: Sensory panel evaluation of cooling ability, 20 ppm aqueous solutions. It counts as in vivo. Further details: key to Peak cooling strength / Peak Strength: —: Not cooling under tested conditions. The note with it: for Peak cooling strength / Longevity of cooling sensation / Time to reach peak cooling / Time period at peak cooling / Peak Strength: 20 ppm aqueous solution; for Peak cooling strength: maximum cooling strength rated on a 1-10 scale; for Time period at peak cooling: cooling plateau; for Peak Strength: Table 4, repeats Table 2, 1-10 scale; for Cooling properties, in words: sensory panel results. On the procedure:
The new carboxamides A1-A15 and B1-B15 were evaluated for their cooling ability by a sensory panel. The evaluation included tasting the 20 ppm aqueous solutions of new carboxamides and rating their maximum cooling strength on a 1-10 scale. In addition, the time at which maximum cooling strength was reached, how long the maximum strength was observed (so called cooling plateau), and the longevity of cooling sensation were recorded. The FIGURE represents a typical cooling profile, using compound A1 as an example. The obtained results (table 2), were compared with two most commonly used commercial cooling compounds WS-3 and WS-23 which belong to the same class of N-alkyl carboxamides. While various methods exist for evaluation of cooling compounds, we have chosen the parameters that allow to assess the practical aspects of new compounds that reflect their potential value as commercial sensory ingredients.

The conditions of series [2]: amount of compound needed to produce a cooling sensation; cited from earlier work.
Series [3] can be described thus: Cooling strength and longevity in alcohol-free mouthwash. It is filed as in vivo. The note with it: compared with WS-5. On the procedure:
Select physiological coolants according to various embodiments were tested in an alcohol-free mouthwash and their impact was evaluated against the control (a known coolant WS-5).

The melting point is the temperature of the solid-liquid transition. As to `CCCCCC(C)NC(=O)C(C)(C(C)C)C(C)C` (centres unmarked) [Compound B11], the melting point came to 46.9 °C. Moreover, the Peak cooling strength entry in series [1] was “— ^a”.
Molecule `CCC(CC)NC(=O)C1CC(C)CCC1C(C)C` (centres unmarked) [Compound A7] came in with a melting point of 192.6 °C. Moreover, in series [1], the “Longevity of cooling sensation” value is 16 min, the “Time to reach peak cooling” value is recorded as 3 min, the “Time period at peak cooling” value stood at 2 min and the Peak cooling strength was determined as 6. Moreover, the “Peak Strength” value in series [1] worked out at 6.
In the case of `CNC(=O)C1CC(C)CCC1C(C)C` (centres unmarked) [Methyl], the “Threshold” value in series [2] was 1.1 µg.
Consider `CC(C)CC(C)NC(=O)C1CC(C)CCC1C(C)C` (centres unmarked) [Compound A9], for which the melting point is 152.6 °C. In addition, in series [1], the “Longevity of cooling sensation” value is 15 min, the “Time to reach peak cooling” value is reported as 5 min, the “Time period at peak cooling” value was determined as 4 min and the Peak cooling strength came out at 3. Moreover, the “Peak Strength” value in series [1] is given as 3.
With `CCC(CC)NC(=O)C(C)(C(C)C)C(C)C` [Compound B7], the melting point came to 105 °C. In series [1], the “Longevity of cooling sensation” value was 14 min, the “Time to reach peak cooling” value came to 4 min, the “Time period at peak cooling” value worked out at 2 min and the Peak cooling strength was 4.
The matching figures for `CC(C)CC(C)NC(=O)C(C)(C(C)C)C(C)C` (centres unmarked) [Compound B9]: 83.7 °C, 18 min, 4 min, 2 min and 5.
Consider `CCCCCCNC(=O)C1CC(C)CCC1C(C)C` (centres unmarked) [Compound A8], for which the melting point was 58.8 °C. The “Cooling effect in mouthwash, in words” value in series [3] is “superior long-lasting cooling effect”. Further, in series [1], the “Longevity of cooling sensation” value was 29 min, the “Time to reach peak cooling” value was determined as 5 min, the “Time period at peak cooling” value is reported as 2 min and the Peak cooling strength came to 6. In addition, in series [1], the “Peak Strength” value amounted to 6; the “Cooling properties, in words” value was “peak cooling strength exceeds both WS-3 and A4”.
Turning to `CCCCCC(C)NC(=O)C1CC(C)CCC1C(C)C` (centres unmarked) [Compound A11], in series [1], the “Longevity of cooling sensation” value was 15 min, the “Time to reach peak cooling” value turned out to be 8 min, the “Time period at peak cooling” value worked out at 2 min and the Peak cooling strength is recorded as 2. Moreover, the “Peak Strength” value in series [1] is reported as 2.
With `CCCCC(CC)CNC(=O)C(C)(C(C)C)C(C)C` (centres unmarked) [Compound B13], the melting point was 82.5 °C. Besides, the Peak cooling strength entry in series [1] is listed as “— ^a”.
Turning to `CC(C)C(C)(C(=O)NC(C)(C)CC(C)(C)C)C(C)C` [Compound B15], the Peak cooling strength entry in series [1] is “— ^a”.
With `CCC(C)(C)NC(=O)C(C)(C(C)C)C(C)C` [Compound B1], in series [1], the Peak cooling strength result is on record as “— ^a” and the “Cooling properties, in words” value was “does not possess any cooling properties”.
`CC(C)C(C)(C(=O)NCC(C)(C)C)C(C)C` [Compound B3]: the melting point stood at 65.9 °C. Moreover, in series [1], the “Longevity of cooling sensation” value came to 15 min, the “Time to reach peak cooling” value came to 3 min, the “Time period at peak cooling” value is recorded as 3 min and the Peak cooling strength was 3.
For the molecule `CC(C)C(C)NC(=O)C(C)(C(C)C)C(C)C` (centres unmarked) [Compound B4], the melting point came out at 88.4 °C. In series [1], the “Longevity of cooling sensation” value stood at 14 min, the “Time to reach peak cooling” value turned out to be 3 min, the “Time period at peak cooling” value is 2 min and the Peak cooling strength turned out to be 4.
As for `CCCCCCCCNC(=O)C(C)(C(C)C)C(C)C` [Compound B12], the Peak cooling strength result in series [1] is recorded as “— ^a”.
Regarding `CNC(=O)C(C)(C(C)C)C(C)C` [WS-23, reference compound], in series [1], the “Longevity of cooling sensation” value was 7 min, the “Time to reach peak cooling” value was determined as 2 min, the “Time period at peak cooling” value is 2 min and the Peak cooling strength is 4.
The molecule `CCC(C)CNC(=O)C1CC(C)CCC1C(C)C` (centres unmarked) [Compound A6] showed a melting point of 92.8 °C. Besides, in series [1], the “Longevity of cooling sensation” value amounted to 20 min, the “Time to reach peak cooling” value was found to be 3 min, the “Time period at peak cooling” value is given as 2 min and the Peak cooling strength is reported as 6. The “Peak Strength” value in series [1] is given as 6.
`CCCCCCCNC(=O)C1CC(C)CCC1C(C)C` (centres unmarked) [Compound A10]: in series [1], the “Longevity of cooling sensation” value is recorded as 19 min, the “Time to reach peak cooling” value is recorded as 4 min, the “Time period at peak cooling” value came out at 1 min and the Peak cooling strength was 5. In addition, the “Peak Strength” value in series [1] is 5.
`CCCCCCCNC(=O)C(C)(C(C)C)C(C)C` [Compound B10]: the Peak cooling strength entry in series [1] was “— ^a”.
Regarding `CCCCCCNC(=O)C(C)(C(C)C)C(C)C` [Compound B8], in series [1], the “Longevity of cooling sensation” value is recorded as 17 min, the “Time to reach peak cooling” value amounted to 4 min, the “Time period at peak cooling” value is given as 1 min and the Peak cooling strength came out at 3.
With `CC(C)CCNC(=O)C(C)(C(C)C)C(C)C` [Compound B2], the melting point was 72.2 °C. Also, in series [1], the “Longevity of cooling sensation” value amounted to 12 min, the “Time to reach peak cooling” value amounted to 3 min, the “Time period at peak cooling” value is given as 2 min and the Peak cooling strength was 2.
Turning to `CC(C)CCCC(C)NC(=O)C(C)(C(C)C)C(C)C` (centres unmarked) [Compound B14], the melting point was 59.4 °C. Further, the Peak cooling strength entry in series [1] is “— ^a”.
In turn, `CCCC(C)NC(=O)C(C)(C(C)C)C(C)C` (centres unmarked) [Compound B5] registered a melting point of 98 °C. In addition, in series [1], the “Longevity of cooling sensation” value was found to be 15 min, the “Time to reach peak cooling” value is 2 min, the “Time period at peak cooling” value was determined as 3 min and the Peak cooling strength was found to be 6.
With `CCC(C)(C)NC(=O)C1CC(C)CCC1C(C)C` (centres unmarked) [Compound A1], the melting point turned out to be 133.1 °C. Moreover, the “Cooling effect in mouthwash, in words” value in series [3] is “superior long-lasting cooling effect”. For the same molecule, in series [1], the “Longevity of cooling sensation” value is 25 min, the “Time to reach peak cooling” value is on record as 6 min, the “Time period at peak cooling” value turned out to be 2 min and the Peak cooling strength is on record as 8. Further, in series [1], the “Peak Strength” value was 8 and the “Cooling properties, in words” value is on record as “one of the most potent coolants found among the N-alkyl p-menthane carboxamides”.
For `CCNC(=O)C1CC(C)CCC1C(C)C` (centres unmarked) [WS-3, reference compound], in series [1], the “Longevity of cooling sensation” value came to 11 min, the “Time to reach peak cooling” value turned out to be 2 min, the “Time period at peak cooling” value is given as 2 min and the Peak cooling strength was 5. Further, the “Threshold” value in series [2] was 0.3 µg.
For `CCCCCCCCNC(=O)C1CC(C)CCC1C(C)C` (centres unmarked) [Compound A12], in series [1], the “Longevity of cooling sensation” value is recorded as 10 min, the “Time to reach peak cooling” value worked out at 6 min, the “Time period at peak cooling” value turned out to be 4 min and the Peak cooling strength worked out at 2. Besides, the “Peak Strength” value in series [1] amounted to 2.
`CCC(C)CNC(=O)C(C)(C(C)C)C(C)C` (centres unmarked) [Compound B6] displayed a melting point of 67.1 °C. Besides, in series [1], the “Longevity of cooling sensation” value is on record as 17 min, the “Time to reach peak cooling” value is recorded as 3 min, the “Time period at peak cooling” value came to 2 min and the Peak cooling strength was 4.
`CC1CCC(C(C)C)C(C(=O)NC(C)C(C)C)C1` (centres unmarked) [Compound A4] registered a melting point of 160.2 °C. For the same molecule, in series [1], the “Longevity of cooling sensation” value is listed as 20 min, the “Time to reach peak cooling” value was determined as 3 min, the “Time period at peak cooling” value stood at 2 min and the Peak cooling strength is on record as 5. Further, the “Peak Strength” value in series [1] is listed as 5.
Molecule `CC1CCC(C(C)C)C(C(=O)NCC(C)(C)C)C1` (centres unmarked) [Compound A3] displayed a melting point of 152.4 °C. For the same molecule, in series [1], the “Longevity of cooling sensation” value was determined as 22 min, the “Time to reach peak cooling” value turned out to be 4 min, the “Time period at peak cooling” value worked out at 3 min and the Peak cooling strength stood at 7. For the same molecule, in series [1], the “Peak Strength” value was 7.
`CC1CCC(C(C)C)C(C(=O)NC(C)(C)CC(C)(C)C)C1` (centres unmarked) [Compound A15]: the melting point stood at 107 °C. Also, in series [1], the “Longevity of cooling sensation” value is given as 14 min, the “Time to reach peak cooling” value is 4 min, the “Time period at peak cooling” value was 6 min and the Peak cooling strength is 2. Besides, in series [1], the “Peak Strength” value is 2; the “Cooling properties, in words” value was “only as strong as A12 and much weaker than other coolants”.
`CC(C)CCCC(C)NC(=O)C1CC(C)CCC1C(C)C` (centres unmarked) [Compound A14] registered a melting point of 146.7 °C. Besides, in series [1], the Peak cooling strength result was “— ^a” and the “Peak Strength” value is recorded as “—^a”.
